The test system of data set [1] is Trypanosoma cruzi (amastigotes and trypomastigotes), Tulahuen strain. As to the kind of experiment: Anti-Trypanosoma cruzi activity assay (amastigotes and trypomastigotes) in infected L929 cells, beta-galactosidase reporter. To be noted: Trypanosoma cruzi, 96 h incubation, ± 0.2, read-out: Trypanocide IC50(μM) ± 0.2. Format: cell-based. The method, then:
Flavanone derivatives were evaluated for anti-T. cruzi activity against the intracellular forms of the parasite. Although the use of epimastigotes present in the midgut vector may be utilized for initial screening, we have instead opted for the simultaneous use of trypomastigote and intracellular amastigotes forms that are present during both acute and chronic phases of the disease. This approach is in accordance with the Drugs for Neglected Diseases Initiative guidelines (DNDi). Moreover, it also has the advantage of evaluating bioactive compounds in infected cells while at the same time monitoring their effects on both the relevant forms of the parasite in the same system. Benznidazole was used as a positive control against T. cruzi and cytotoxicity was determined in mammalian L929 cells (Table 1). The bioavailability profile of the flavanones was evaluated by applying the Lipinski rule and data related to the risk of toxicity (mutagenicity, tumorigenicity, irritability, and effects on the reproductive system) carried out through online programs “Molinspiration” and “OSIRIS property explorer” (Table 1). […] Nevertheless, this preliminary result motivated us to investigate other analogs bearing substituents in order to improve potency and selectivity. […] Moreover, the selectivity of 2d was almost 4 times greater than 2a. The importance of methoxy substituents for trypanocidal activity has been noted in other studies. […] These compounds resembled more closely the chemical structure of the trypanocidal natural product (brevifolin carboxylate) that these structures were based on. Some enhancement in the trypanocidal activity of hybrid coumarin-chalcone compounds was also noted when the methoxy groups were introduced into either the 2 or 5 positions of the benzene ring. The inclusion of a pyridine moiety in compound 2e was supported by previous reports describing the anti-T. cruzi activity of 2-pyridyl derivatives and their capacity to inhibit cruzain catalytic activity. […] No improvements in anti-T. cruzi activity were also observed for flavanones substituted at the benzoyl moiety (2g–2o and 2v–2x). […] The physicochemical drug descriptors of the molecular properties for the synthesized compounds were calculated by Molinspiration software (Table 1). The majority of the tested compounds satisfy the Lipinski rule with no violations and therefore displaying potentially good bioavailability. There were no linear correlations observed between molecular hydrophobicity and bioactivity.
The in vitro anti-T. cruzi activity was evaluated on L929 cells (mouse fibroblasts) infected with Tulahuen strain of the parasite expressing the Escherichia coli β-galactosidase as reporter gene. Briefly, for the bioassay, 4000 L929 cells were added to each well of a 96-well microtiter plate. After an overnight incubation, 40,000 trypomastigotes were added to the cells and incubated for 2 h. Then, the medium containing extracellular parasites were replaced with 200 μL of fresh medium and the plate was incubated for an additional 48 h to establish the infection. For IC50 determination, the cells were exposed to each synthesized compound at serial decreasing dilutions and the plate was incubated for 96 h. After this period, 50 μL of 500 μM chlorophenol red beta-D-galactopyranoside (CPRG) in 0.5% Nonidet P40 was added to each well, and the plate was incubated for 16–20 h, after which the absorbance at 570 nm was measured. Controls with uninfected cells, untreated infected cells, infected cells treated with Benznidazole at 3.8 μM (positive control) or DMSO 1% were used. The results were expressed as the percentage of T. cruzi growth inhibition in compound-tested cells as compared to the infected cells and untreated cells. The IC50 values were calculated by linear interpolation. Quadruplicates were run in the same plate, and the experiments were repeated at least once.

Data set [2] is described as follows: In vitro cytotoxic test on uninfected L-929 cells (alamarBlue). To be noted: mouse, uninfected L-929 cells; mammalian L929 cells, 96 h, alamarBlue; ± 2.0; read-out: Cytotoxicity CC50(μM) ± 2.0. Format: cell-based, mouse. The method, then: (§1) The active compounds were tested in vitro for determination of cellular toxicity against uninfected L-929 cells using the alamarBlue® dye. The cells were exposed to compounds at increasing concentrations starting at IC50 value for T. cruzi. After 96 h of incubation with the tested compounds, the alamarBlue® was added and the absorbance at 570 and 600 nm measured after 4–6 h. The cell viability was expressed as the percentage of difference in the reduction between treated and untreated cells. IC50 values were calculated by linear interpolation, and the selectivity index (SI) was determined based on the ratio of the IC50 value in the host cell divided by the IC50 value of the parasite. Quadruplicates were run in the same plate, and the experiments were repeated at least once.
In general terms: Alamar Blue is a resazurin reagent that responds to reducing activity.

For the next data set, the system named is L929 cells. Described as above. Format: cell-based, mouse. Particulars: CC50 L929 / IC50 T. cruzi. On the procedure: as §1
Data set [3] has as its system trypomastigote form of T. cruzi. Set-up: method as in Ambrozin et al. Particulars: ref Ambrozin et al.; cited from earlier work.
Data set [4] deals with T. cruzi (Trypomastigote). Set-up: method as in Grecco et al. [9],[10],[11],[12]. To be noted: ref Grecco et al. [9],[10],[11],[12]; cited from earlier work.
The subject of data set [5] is T. cruzi (Trypomastigote). Set-up: method as in Ganapaty et al. [8]. To be noted: ref Ganapaty et al. [8]; cited from earlier work.

Where two headings read alike, the source gives them in different places.

The IC50 is the concentration that inhibits the measured activity by half. The term CC50 denotes the concentration giving 50% cytotoxicity.

On to `COc1ccc2c(c1)C(=O)[C@@H](C(=O)c1ccccc1)[C@H](c1ccccc1Cl)O2` (relative stereo) [Compound 2s, trans-3-benzoyl-2-(2-chlorophenyl)-6-methoxychroman-4-one], for which, in data set [1], the concentration for half-maximal inhibition (IC50) is 18.4 µM. For the same compound, the CC50 at 96 h in data set [2] is 102 µM. Further, in the data set on L929 cells, the “SI (selectivity index calculated from CC50/IC50)” value is recorded as 5.5.

Turning to `O=C(c1ccccc1)[C@@H]1C(=O)c2cc(Cl)ccc2O[C@H]1c1ccccc1` (relative stereo) [Compound 2t, trans-3-benzoyl-6-chloro-2-phenylchroman-4-one], the IC50 in data set [1] came out at 23.2 µM. In addition, the 50% cytotoxic concentration (CC50) at 96 h in data set [2] stood at 221 µM. Moreover, the “SI (selectivity index calculated from CC50/IC50)” value in the data set with L929 cells is 9.5.

For `COc1ccc([C@@H]2Oc3ccc(Cl)cc3C(=O)[C@H]2C(=O)c2ccccc2)cc1` (relative stereo) [Compound 2u, trans-3-benzoyl-6-chloro-2-(4-methoxyphenyl)chroman-4-one], the IC50 in data set [1] was 59.2 µM. The CC50 at 96 h in data set [2] was found to be 205 µM. Moreover, the “SI (selectivity index calculated from CC50/IC50)” value in the data set on L929 cells is 3.5.

As to `O=C(c1ccccc1)[C@@H]1C(=O)c2ccccc2O[C@H]1c1ccco1` (relative stereo) [Compound 2y, trans-3-benzoyl-2-(furan-2-yl)chroman-4-one], the IC50 in data set [1] was found to be 114 µM. The CC50 at 96 h in data set [2] turned out to be 503 µM. Further, the “SI (selectivity index calculated from CC50/IC50)” value in the data set on L929 cells is recorded as 4.4.

Turning to `O=C(c1ccccc1)[C@@H]1C(=O)c2ccccc2O[C@H]1c1ccc([N+](=O)[O-])o1` (relative stereo) [Compound 2z, trans-3-benzoyl-2-(5-nitrofuran-2-yl)chroman-4-one], the half-maximal inhibitory concentration (IC50) in data set [1] came to 2.6 µM. In addition, the cytotoxic concentration (CC50) at 96 h in data set [2] was 27.5 µM. Besides, the “SI (selectivity index calculated from CC50/IC50)” value in the data set on L929 cells was 10.6.

Take `COc1ccc2c(=O)cc(-c3ccccc3)oc2c1` [7-Methoxyflavone]: in data set [3], the IC50 is 3.12 mM.

For `CCC1(C(=O)c2ccccc2)C(=O)c2ccccc2OC1c1ccccc1` (stereo not drawn) [Compound 4, 3-Benzoyl-3-ethyl-2-phenylchroman-4-one], in data set [1], the IC50 came to 13.2 µM. Moreover, the cytotoxic concentration (CC50) at 96 h in data set [2] stood at 449 µM. The “SI (selectivity index calculated from CC50/IC50)” value in the data set on L929 cells is given as 34.03.

In the case of `c1ccc(-c2n[nH]c3c2C(c2ccccc2)Oc2ccccc2-3)cc1` (stereo not drawn) [Compound 5, 3,4-diphenyl-1,4-dihydrochromeno[4,3-c]pyrazole], the IC50 in data set [1] was 8.3 µM. Further, in data set [2], the CC50 at 96 h amounted to 38.6 µM. In the data set with L929 cells, the “SI (selectivity index calculated from CC50/IC50)” value is recorded as 4.6.

As for `O=c1cc(-c2ccccc2)oc2ccccc12` [Flavone], the IC50 in data set [3] is 9.52 mM.

For the compound `COc1c(O)cc2oc(-c3ccc(O)cc3)cc(=O)c2c1O` [Hispidulin], the IC50 in data set [4] was 268 µM.

Regarding `COc1ccc(-c2cc(=O)c3c(O)c(OC)c(O)cc3o2)cc1` [Pectolinaringenin], in data set [4], the IC50 is 164 µM.

In the case of `COc1cc2c(cc1O)OC[C@H](c1cc3c(cc1O)OCO3)[C@H]2O` [Pumilanol], in data set [5], the IC50 was 10.1 µM.

For `COc1cc(O)c2c(c1)O[C@H](c1ccc(O)cc1)CC2=O` [Sakuranetin], in data set [4], the IC50 is 70.5 µM.

Values taken from paper PMC7024391, “Trypanocidal Activity of Flavanone Derivatives” (Molecules, 2020).
